Tests used:
E. coli = test: In vitro bacterial growth in plasma from transfused mice; type: cell-based
Experimental: Results shown in FIG. 15A are representative of two experiments. C57BL/6 mice were infused with a sub-clinical dose of LPS (E. coli 0111:B4; 30 μg per mouse by tail vein injection) followed by transfusion of 400 μL of fresh RBCs or stored RBCs. Mice were sacrificed at 24-hour post-transfusion and plasma cytokines measured (n=5 per group). *P=0.008, **P=0.003 as compared to mice infused LPS+ stored RBCs. To obtain the results shown in FIG. 15B, plasma (100 μL) was obtained from mice 2-hours post-transfusion with 400 μL of fresh RBCs (n=15), stored RBCs (n=24), stored RBC-derived supernatant (n=12), washed stored RBCs (n=13), or ghosts prepared from stored RBCs (n=8). Plasma was also obtained from control untransfused mice (n=14) or 24-hours post-transfusion with stored RBCs (n=8). Samples were incubated at 37° C. with shaking with about 1×10^6 CFU of E. coli, as labeled. Bacterial growth was monitored every 30 minutes by absorbance at 600 nm for up to 5 hours. […] To obtain the results shown in FIG. 15C, pooled plasma samples (100 μL) from mice 2 hours after transfusion with 400 μL of fresh RBCs or stored RBCs were supplemented with either ferric citrate (20 μM), sodium citrate (20 μM), bovine serum albumin (BSA; 80 μM), or protoporphyrin IX (20 μM), and then incubated at 37° C. with shaking with ˜1×10^6 CFU of E. coli. Bacterial growth was monitored every 30 minutes by absorbance at 600 nm for up to 5 hours in replicates of 5 per group. […] To obtain the results shown in FIG. 15D, pooled plasma (n=4) were incubated with the iron chelator, DFO (20 μM), or with the iron-chelated form of DFO, ferroxamine (FO) (20 μM) and inoculated with E. coli as shown for the previous experiment. […] To obtain the results shown in FIG. 15E, pooled plasma (n=5) was incubated with the iron chelator, 2,2′-dipyridyl (400 μM), with or without ferric citrate (133 μM) and inoculated with E. coli, as shown for the previous experiment. […] Results are representative of at least 2 experiments and are shown as mean (±SEM). Note that the absence of an error bar is indicative of highly reproducible replicates with pooled plasma.
A pathogenic strain of E. coli, obtained from an anonymous patient with a urinary tract infection, was used. For each experiment, a sample from a frozen stock of this E. coli was inoculated into Nutrient Broth (Difco, BD Biosciences) and grown to mid-log phase (about 3 hours). Bacteria were then washed twice in PBS and re-suspended to about 200,000 colony forming units (CFU)/μL. Five microliters of bacterial suspension were then added to 100 μL of heparinized plasma in a 96-well EIA/RIA plate (Costar, Sigma). Bacterial growth was measured by absorbance at 600 nm. In some experiments, 20 μM of ferric citrate or sodium citrate (Sigma), bovine serum albumin, 2,2′-dipyridyl (all from Sigma-Aldrich), protoporphyrin IX (Frontier Scientific, Logan, Utah), or DFO were added to plasma before bacterial inoculation.
Significance between two means was calculated using a two-tailed Mann-Whitney U test. Significance relevant to bacterial growth in vitro was determined by converting each growth curve to an area under the curve (AUC) value followed by a 2-tailed Mann-Whitney U test to compare mean AUC for each group. A value for P less than 0.05 was considered significant. Statistical analysis was performed using Prism 5 (GraphPad Software, Inc., La Jolla, Calif.).

[1] = in vivo; cited from earlier work
[2] = test system: pro-inflammatory response induced by stored RBC transfusions; test: DFO or FO infusion immediately before stored RBC transfusion, plasma cytokine/chemokine levels (FIG. 16A, 19); type: in vivo, mice; conditions: 2 hours
Experimental: To obtain the results shown in FIG. 16A, mice were pretreated with a PBS vehicle control (n=28) or with 3 mg of DFO, with (n=15) or without (n=31) the addition of equimolar ferric citrate, immediately before transfusion with stored RBCs (400 μL). Mice were sacrificed 2 hours after transfusion, and plasma cytokine levels were measured; *P<0.05; **P<0.01; ***P<0.001 compared with mice infused with PBS vehicle and transfused stored RBCs. To obtain the results shown in FIG. 16B, bioluminescence was quantified for 24 hours after transfusion over the hepatosplenic region of SAA1-luciferase reporter mice transfused with 200 μL of fresh RBCs (n=3; •), the PBS vehicle control and stored RBCs (n=3; ▪), or 3 mg of DFO and stored RBCs (n=6; ▴); P=0.095 at 4 and 6 hours after transfusion comparing vehicle-treated and DFO-treated mice. […]
Mice were untreated or pretreated with 3 mg of DFO immediately before stored RBC transfusion (400 μL; n=14 per group). Mice were sacrificed 2-hours post-transfusion and plasma cytokine/chemokine levels measured. […]
RBCs (200 or 400 μL at 17.0-17.5 g/dL of hemoglobin; 1 or 2 equivalent human units, respectively) were transfused through the retro-orbital plexus of isoflurane-anesthetized mice. […] Survival was calculated by comparing the ratio of Dil- to DiO-labeled RBCs in the sample to the ratio in the transfuse itself. […]

TNF-α = conditions: LPS-challenged mice; reference [119]; cited from earlier work
[3] = added to pooled plasma from mice transfused with fresh RBCs, 20 μM (bovine serum albumin 80 μM)

For `c1ccc(-c2ccccn2)nc1` [2,2′-dipyridyl], the bacterial growth (E. coli; 2,2′-dipyridyl 400 μM in pooled plasma from mice transfused with stored RBCs) was “greater inhibition of bacterial growth” and the “inhibitory effect on bacterial growth” value (E. coli; 2,2′-dipyridyl preincubated with a one-third molar ratio of ferric citrate (133 μM)) was “abrogated”.

With “bovine serum albumin: bovine serum albumin control supplement” the bacterial growth (E. coli; [3]) was “not”.

For `O=C([O-])CC(O)(CC(=O)[O-])C(=O)[O-].[Na+].[Na+].[Na+]` [sodium citrate], the bacterial growth (E. coli; [3]) was “not”.

In the case of `O=C(O)c1ccc(-n2nc(-c3ccccc3O)nc2-c2ccccc2O)cc1` [deferasirox], the t1/2 [1] is listed as 8 to 16 h.

In the case of `CC(=O)N([O-])CCCCCNC(=O)CCC(=O)N([O-])CCCCCNC(=O)CCC(=O)N([O-])CCCCCN.[Fe+3]` [FO, ferroxamine], the proinflammatory cytokine response ([2]; 3 mg DFO, or FO (equimolar DFO and ferric citrate), before stored RBCs (400 μL)) is given as “as effective as DFO”, the bacterial growth (E. coli; 20 μM added to pooled plasma from mice transfused with stored RBCs, absorbance at 600 nm up to 5 hours) is given as “prevented the inhibition of bacterial growth” and the TNF-α levels (TNF-α) is given as “reduced TNF-α levels to a similar extent”.

With ferric citrate [iron citrate] the bacterial growth (E. coli; [3]) was “promoted to a similar level as in plasma from mice transfused with stored RBCs”.

For `CC(=O)N(O)CCCCCNC(=O)CCC(=O)N(O)CCCCCNC(=O)CCC(=O)N(O)CCCCCN` [DFO, deferoxamine], the “plasma IL-6 levels” value ([2]; 3 mg (about 120 mg/kg) DFO i.v. immediately before stored RBCs, mean±s.e.m., without DFO 212.8±30.8, P=0.005) is given as 98.4 ± 10.1 pg/mL and the t1/2 [1] is given as 6 h.

From patent US20120294826A1, “METHODS, KITS AND COMPOSITIONS FOR AMELIORATING ADVERSE EFFECTS ASSOCIATED WITH TRANSFUSION OF AGED RED BLOOD CELLS” (priority 2009, published 2012)
